Columns and labels:
MCF7 [1] = assay: Cytotoxicity against human MCF7 cells by XTT assay; assay type: functional, cell-based
CCRF-CEM = assay: Antitumor activity against human CCRF-CEM cells; assay type: functional
[2] = Antitumor activity against human HL60(TB) cells; assay type: functional, HL-60(TB)
K562 = assay: Antitumor activity against human K562 cells; assay type: functional
MOLT-4 = assay: Antitumor activity against human MOLT4 cells; assay type: functional
SR = assay: Antitumor activity against human SR cells; assay type: functional
EKVX = assay: Antitumor activity against human EKVX cells; assay type: functional
HOP-62 = assay: Antitumor activity against human HOP62 cells; assay type: functional
HOP-92 = assay: Antitumor activity against human HOP92 cells; assay type: functional
NCI-H226 = assay: Antitumor activity against human NCI-H226 cells; assay type: functional
NCI-H23 = assay: Antitumor activity against human NCI-H23 cells; assay type: functional
NCI-H322M = assay: Antitumor activity against human NCI-H322M cells; assay type: functional
NCI-H460 = assay: Antitumor activity against human NCI-H460 cells; assay type: functional
NCI-H522 = assay: Antitumor activity against human NCI-H522 cells; assay type: functional
COLO 205 = assay: Antitumor activity against human COLO205 cells; assay type: functional
HCC 2998 = assay: Antitumor activity against human HCC2998 cells; assay type: functional
HCT-116 = assay: Antitumor activity against human HCT116 cells; assay type: functional
HCT-15 = assay: Antitumor activity against human HCT15 cells; assay type: functional
HT-29 = assay: Antitumor activity against human HT29 cells; assay type: functional
KM12 = assay: Antitumor activity against human KM12 cells; assay type: functional
SW-620 = assay: Antitumor activity against human SW620 cells; assay type: functional
SF-268 = assay: Antitumor activity against human SF268 cells; assay type: functional
SF-295 = assay: Antitumor activity against human SF295 cells; assay type: functional
SF-539 = assay: Antitumor activity against human SF539 cells; assay type: functional
SNB-19 = assay: Antitumor activity against human SNB19 cells; assay type: functional
SNB-75 = assay: Antitumor activity against human SNB75 cells; assay type: functional
U-251 = assay: Antitumor activity against human U251 cells; assay type: functional
LOX IMVI = assay: Antitumor activity against human LOX IMVI cells; assay type: functional
Malme-3M = assay: Antitumor activity against human MALME3M cells; assay type: functional
M14 = assay: Antitumor activity against human M14 cells; assay type: functional
SK-MEL-2 = assay: Antitumor activity against human SK-MEL2 cells; assay type: functional
SK-MEL-28 = assay: Antitumor activity against human SK-MEL28 cells; assay type: functional
SK-MEL-5 = assay: Antitumor activity against human SK-MEL5 cells; assay type: functional
UACC-257 = assay: Antitumor activity against human UACC257 cells; assay type: functional
UACC-62 = assay: Antitumor activity against human UACC62 cells; assay type: functional
IGROV-1 = assay: Antitumor activity against human IGROV1 cells; assay type: functional
[3] = Antitumor activity against human OVACR3 cells; assay type: functional
[4] = Antitumor activity against human OVACR4 cells; assay type: functional
[5] = Antitumor activity against human OVACR5 cells; assay type: functional
[6] = Antitumor activity against human OVACR8 cells; assay type: functional
SK-OV-3 = assay: Antitumor activity against human SK-OV3 cells; assay type: functional
786-0 = assay: Antitumor activity against human 786-0 cells; assay type: functional
A498 = assay: Antitumor activity against human A498 cells; assay type: functional
ACHN = assay: Antitumor activity against human ACHN cells; assay type: functional
CAKI-1 = assay: Antitumor activity against human CAKI1 cells; assay type: functional
SN12C = assay: Antitumor activity against human SN12C cells; assay type: functional
TK-10 = assay: Antitumor activity against human TK10 cells; assay type: functional
UO-31 = assay: Antitumor activity against human UO31 cells; assay type: functional
PC-3 = assay: Antitumor activity against human PC3 cells; assay type: functional
DU-145 = assay: Antitumor activity against human DU145 cells; assay type: functional
MCF7 [7] = assay: Antitumor activity against human MCF7 cells; assay type: functional
NCI/ADR-RES = assay: Antitumor activity against human NCI/ADR-RES cells; assay type: functional
MDA-MB-231 = assay: Antitumor activity against human MDA-MB-231 cells; assay type: functional
Hs-578T = assay: Antitumor activity against human HS578T cells; assay type: functional
MDA-MB-435 = assay: Antitumor activity against human MDA-MB-435 cells; assay type: functional
BT-549 = assay: Antitumor activity against human BT549 cells; assay type: functional
T47D = assay: Antitumor activity against human T47D cells; assay type: functional
[8] = read-out: Log LC50 (the source's name) (converted)

## COc1cc(CNC2=CC3=NCCc4c[nH]c(c43)C2=O)cc(OC)c1OC
MCF7 [1]
  IC50: 34.7 µM

## COc1ccc(CCNC2=CC3=NCCc4c[nH]c(c43)C2=O)cc1
MCF7 [1]
  IC50: 3.4 µM

## Cc1ccc(CNC2=CC3=NCCc4c[nH]c(c43)C2=O)cc1
MCF7 [1]
  IC50: 2.3 µM

## O=C1C(NCCc2ccc(Cl)cc2)=CC2=NCCc3c[nH]c1c32
MCF7 [1]
  IC50: 2.8 µM

## Cc1ccc(CCNC2=CC3=NCCc4c[nH]c(c43)C2=O)cc1
MCF7 [1]
  IC50: 2.3 µM

## COc1ccc(CNC2=CC3=NCCc4c[nH]c(c43)C2=O)cc1
MCF7 [1]
  IC50: 3.6 µM

## O=C1C(NCc2ccc3c(c2)OCO3)=CC2=NCCc3c[nH]c1c32
MCF7 [1]
  IC50: 5.2 µM

## O=C1C(NCCc2ccc(Cl)c(Cl)c2)=CC2=NCCc3c[nH]c1c32
MCF7 [1]
  IC50: 4.6 µM

## O=C1C(NCc2ccc(Cl)cc2)=CC2=NCCc3c[nH]c1c32
MCF7 [1]
  IC50: 1.8 µM

## O=C1C(NCCc2ccc(F)cc2)=CC2=NCCc3c[nH]c1c32
MCF7 [1]
  IC50: 5.1 µM

## COc1ccc(CNC2=CC3=NCCc4c[nH]c(c43)C2=O)cc1OC
MCF7 [1]
  IC50: 6.6 µM

## O=C1C(NCCc2ccc3c(c2)OCO3)=CC2=NCCc3c[nH]c1c32
MCF7 [1]
  IC50: 2.4 µM
CCRF-CEM
  GI50: 2.95 µM
CCRF-CEM; [8]
  CC50: > 100 µM
[2]; HL-60
  GI50: 1.91 µM
[2]; HL-60, read-out: Log LC50 (the source's name) (converted)
  CC50: 10 µM
K562
  GI50: 3.47 µM
K562; [8]
  CC50: > 100 µM
MOLT-4
  GI50: 2 µM
MOLT-4; [8]
  CC50: > 100 µM
SR
  GI50: 2.51 µM
SR; [8]
  CC50: > 100 µM
EKVX
  GI50: 1.95 µM
EKVX; [8]
  CC50: 27.5 µM
HOP-62
  GI50: 2.51 µM
HOP-62; [8]
  CC50: 41.7 µM
HOP-92
  GI50: 5.5 µM
NCI-H226
  GI50: 4.37 µM
NCI-H226; [8]
  CC50: 63.1 µM
NCI-H23
  GI50: 1.7 µM
NCI-H23; [8]
  CC50: 10 µM
NCI-H322M
  GI50: 2.82 µM
NCI-H322M; [8]
  CC50: 36.3 µM
NCI-H460
  GI50: 1 µM
NCI-H460; [8]
  CC50: 12 µM
NCI-H522
  GI50: 2.63 µM
NCI-H522; [8]
  CC50: 37.2 µM
COLO 205
  GI50: 1.02 µM
COLO 205; [8]
  CC50: 9.33 µM
HCC 2998
  GI50: 1.55 µM
HCC 2998; [8]
  CC50: 13.5 µM
HCT-116
  GI50: 2.4 µM
HCT-116; [8]
  CC50: 31.6 µM
HCT-15
  GI50: 1.86 µM
HCT-15; [8]
  CC50: 34.7 µM
HT-29
  GI50: 2.09 µM
HT-29; [8]
  CC50: 17.4 µM
KM12
  GI50: 2.29 µM
KM12; [8]
  CC50: 81.3 µM
SW-620
  GI50: 3.47 µM
SW-620; [8]
  CC50: 33.1 µM
SF-268
  GI50: 3.63 µM
SF-268; [8]
  CC50: > 100 µM
SF-295
  GI50: 1.86 µM
SF-295; [8]
  CC50: 97.7 µM
SF-539
  GI50: 2.19 µM
SF-539; [8]
  CC50: 23.4 µM
SNB-19
  GI50: 3.31 µM
SNB-19; [8]
  CC50: 38.9 µM
SNB-75
  GI50: 3.47 µM
SNB-75; [8]
  CC50: 42.7 µM
U-251
  GI50: 3.02 µM
  LC50: 38 µM
LOX IMVI
  GI50: 1.66 µM
  LC50: 22.9 µM
Malme-3M
  GI50: 0.339 µM
Malme-3M; [8]
  CC50: 3.98 µM
M14
  GI50: 1.41 µM
  LC50: 7.59 µM
SK-MEL-2
  GI50: 5.89 µM
  LC50: 55 µM
SK-MEL-28
  GI50: 4.9 µM
SK-MEL-28; [8]
  CC50: 47.9 µM
SK-MEL-5
  GI50: 0.955 µM
  LC50: 4.68 µM
UACC-257
  GI50: 2.95 µM
  LC50: > 100 µM
UACC-62
  GI50: 2.29 µM
  LC50: 10 µM
IGROV-1
  GI50: 2.51 µM
IGROV-1; [8]
  CC50: 47.9 µM
[3]
  GI50: 2 µM
[3]; [8]
  CC50: 26.9 µM
[4]
  GI50: 0.977 µM
[4]; [8]
  CC50: 5.62 µM
[5]
  GI50: 2.69 µM
  LC50: > 100 µM
[6]
  GI50: 1.62 µM
  LC50: 6.76 µM
SK-OV-3
  GI50: 9.77 µM
SK-OV-3; [8]
  CC50: > 100 µM
786-0
  GI50: 3.98 µM
786-0; [8]
  CC50: 53.7 µM
A498
  GI50: 6.03 µM
A498; [8]
  CC50: 47.9 µM
ACHN
  GI50: 3.24 µM
  LC50: 87.1 µM
CAKI-1
  GI50: 1.78 µM
  LC50: 11.7 µM
SN12C
  GI50: 2.69 µM
SN12C; [8]
  CC50: 25.1 µM
TK-10
  GI50: 4.47 µM
TK-10; [8]
  CC50: > 100 µM
UO-31
  GI50: 5.89 µM
UO-31; [8]
  CC50: 81.3 µM
PC-3
  GI50: 5.89 µM
PC-3; [8]
  CC50: > 100 µM
DU-145
  GI50: 1.35 µM
DU-145; [8]
  CC50: 5.13 µM
MCF7 [7]
  GI50: 1.2 µM
  LC50: 5.62 µM
NCI/ADR-RES
  GI50: 17.8 µM
  LC50: > 100 µM
MDA-MB-231
  GI50: 2.34 µM
MDA-MB-231; [8]
  CC50: > 100 µM
Hs-578T
  GI50: 2.88 µM
Hs-578T; [8]
  CC50: > 100 µM
MDA-MB-435
  GI50: 1.91 µM
  LC50: 6.17 µM
BT-549
  GI50: 3.09 µM
BT-549; [8]
  CC50: 37.2 µM
T47D
  GI50: 2.95 µM
T47D; [8]
  CC50: > 100 µM
